In patent US7084174B2, “Administration of isovaleryl L-carnitine to stimulate osteoblastic activity” (Sigma-Tau Industrie Farmaceutiche Riunite S.p.A., priority 2000, dated 2006):
Where a name gives a salt, the structure may show the parent alone.

Tests used:
osteocalcine = conditions: mice, during formation of the bone matrix; cited from earlier work
human osteoblasts [1] = assay: Cellular proliferation test; type: cell-based; conditions: for cells proliferation (number of cells, colorimetric test at 540 nm): human osteoblasts, medium without FCS with BSA, increasing doses, 5 days, FIG. 1 / FIG. 2
Procedure: (§1) The differentiated human osteoblasts were prepared starting from bone fragments obtained during surgical operation following the procedure described in Calcif. Tissue Int. 62: 362–365, 1998; and in Calcif. Tissue Int. 37: 453–460, 1985.
(§2) In short, bone fragments were undertaken to enzymatic digestion with collagenase (1 mg/ml) diluted in phosphate buffer in order to remove fibroblasts, haematic endothelial cells or bone marrow cells, if any.
(§3) The fragments so cleaned were maintained in culture in presence of a medium containing 20% of foetal calf serum (FCS) to obtain osteoblasts population for explant.
(§4) The cells so obtained were characterised to verify their osteoblastic phenotype then used for the experiments.
The cellular proliferation test was done growing the cells in 96 well plates, in medium without FCS, and with bovine serum albumin (BSA).
The cells were exposed to increasing doses of L-carnitine fumarate and isovaleryl L-carnitine fumarate. The positive control group was constituted by cells growing in presence of FCS (15%).
Every 24 ore, for 5 days, samples from plates in culture were fixed with a solution of paraformaldehyde at 3%, the cells were stained with crystal-violet at 0.5%, washed to eliminate the excess of stain and a solution of sodium citrate 0.1 M in ethanol was added. The number of the cells contained in the wells was evaluated by colorimetric test at 540 nm.

[2] = rat; cited from earlier work
human osteoblasts [3] = assay: Production of collagen by incorporation of 3H-proline; type: cell-based; conditions: FIG. 3
Procedure: as §1, §2, §3, §4
The collagen production represents a method for the evaluation of the osteoblast activity.
This production was evaluated on semiconfluent cells grown on 24 wells plates, in medium without serum (FCS) containing 1 μCi/well of ^3H-proline, both in the wells of the control and in the wells where were present the tested compounds. After 4 hours of incubation in presence of the tracer the cells were lysed and undertaken to an extraction procedure (Journal of Bone and Mineral Research, 2000; Vol. 15(2); 188–97). […] The radioactivity of the cells, as index of the cells collagen synthesis, was evaluated with a beta-counter.

C[N+](C)(C)C[C@H](O)CC(=O)[O-] [L-carnitine]
production of osteocalcine (index of better calcification) (osteocalcine): increase the production of osteocalcine

C[N+](C)(C)C[C@H](O)CC(=O)[O-].O=C(O)/C=C/C(=O)O [L-carnitine fumarate, reference compound]
cells proliferation (number of cells, colorimetric test at 540 nm) (human osteoblasts [1]): cells proliferation induced by L-carnitine fumarate

C[N+](C)(C)CC(O)CC(=O)[O-] (racemic) [D,L-carnitine]
bone calcium [2]: increases the bone calcium

CC(C)CC(=O)O[C@H](CC(=O)[O-])C[N+](C)(C)C [isovaleryl L-carnitine fumarate]
cells proliferation compared with L-carnitine fumarate (human osteoblasts [1]; FIG. 1 versus FIG. 2): induces cells proliferation (FIG. 1) in a more potent way | cellular proliferation activity at 10^-3 M compared with L-carnitine fumarate at 10^-2 M (human osteoblasts [1]; dose 10 times lower than that of L-carnitine fumarate): has the same cellular proliferation activity | cells proliferation (number of cells, colorimetric test at 540 nm) (human osteoblasts [1]): promotes cells proliferation | production of collagen respect to the same doses of L-carnitine fumarate (human osteoblasts [3]; Student t test): favouring activity for the production of collagen in a significant way | production of collagen (3H-proline incorporation) respect to the control sample (human osteoblasts [3]; semiconfluent cells, medium without serum, 4 hours of incubation with tracer): increases the production of collagen in an higher way respect to the control sample

CC(=O)O[C@H](CC(=O)[O-])C[N+](C)(C)C [acetyl L-carnitine]
production of osteocalcine (index of better calcification) (osteocalcine): reduces the production of this marker
